Data published in patent US7208572B2, “Leptin-related peptides” (Albany Medical College, priority 1998, dated 2007).
Marks after values point to notes of the source that are not given here. Square brackets hold non-standard residues; d marks the D form. Ends that are not written are not given here.

Key:
Format in all cases: in vivo, mouse
[1] = Epitope mapping: body weight and food intake in female C57BL/6J ob/ob mice, 7 daily ip injections; settings: 1 mg/day ip, 7 days
Description: Animal procedures. Feeding and weighing schedules, as well as peptide administration protocols, are as described in EXAMPLE 8, supra.
Statistical analysis. Changes in body weight and differences in food intake between peptide-treated and vehicle-injected control mice were analyzed by analysis of variance (ANOVA) and considered significant when P<0.05.
Female ob/ob mice (n=6 per group) were given a single ip injection of 0.2 ml of vehicle (PBS, pH 7.2) or leptin-related synthetic peptide amide in 0.2 ml PBS for 7 consecutive days. Daily changes in body weight compared to pretreatment weights in both vehicle-injected control and peptide-treated mice are shown in FIG. 4. […] There was no evidence of weight loss in response to peptide treatment.

[2] = 12-day ip study of body weight gain and food intake in female C57BL/6J ob/ob mice; settings: 1 mg/day ip, 12 days
Description: The graphs show changes in body weight (expressed as percent of initial weight) and food intake (expressed as mg/gm body weight/mouse) for mice given vehicle or synthetic leptin-related peptide OB3 (1 mg/day, ip, 12 days).
Mice were injected with leptin-related synthetic peptide (1 mg/g body weight, ip) or vehicle daily for 12 consecutive days. Each bar represents mean±SEM food consumption per mouse (n=6 mice per group) after 3, 6, 9 and 12 days of treatment.
Each value represents mean±SEM change in body weight for a group of 6 mice.
Mice were injected with leptin-related synthetic peptide (1 mg/g body weight, ip) or vehicle for 12 consecutive days. Each bar and vertical line represents mean±food consumption per mouse (n=6 mice per group) after 3, 6, 9 and 12 days of treatment.

[3] = Truncated and D-amino acid-substituted analogs: body weight, food and water intake in female C57BL/6J ob/ob mice, 7 days; settings: for Cumulative food intake / Heavier (+) or lighter (−) than initial weight / Weight gain (+) or loss (−) / Increase (+) or decrease (−) of cumulative food intake: D-analog series
Description: A. Housing: 6–8-week old homozygous female obese (ob/ob) and wild type (+1+) mice (C57BL/6J, Jackson Laboratory, Bar Harbor, Maine) were maintained in a temperature-controlled room (24° C.) in the Albany Medical College Animal Resources Facility under alternating 12-h light and dark periods (lights on 0700–1900 h). The animals were housed three per cage, and allowed food and water ad libitum for six days following their arrival.
Food and water remaining after 24 h was measured to the nearest 0.1 g and 0.1 ml, respectively, and the average amount consumed per mouse was calculated (mean±SEM, n=6). The mice were weighed once daily between 0900 and 1100 h on an Acculab V-333 electronic balance (Cole-Parmer, Vernon Hills, Ill.)
C. […] Control mice received 0.2 ml PBS (ip) only.
Female C7BL/6J ob/ob mice were given a single ip injection of vehicle (PBS, pH 7.2), LEP-(116–130) or truncated peptide (1 mg/200 ul PBS) for seven consecutive days. Daily changes in body weight compared to pretreatment weights of vehicle-injected control and peptide-treated mice were analyzed.

[4] = Blood glucose in female C57BL/6J ob/ob mice (Example 11); settings: 1 mg/day ip
Description: D. Measurement of blood glucose: Blood was drawn from the tail vein of each mouse 2 h before the onset of the dark period at the beginning of the study, and after 2, 4, and 6 days of peptide treatment. The blood was applied to a test strip, and glucose levels were measured with a Glucometer Elite (Bayer, Elkhart, Ind.) glucose monitor.

Substance	Cumulative food intake [1] [gm/mouse]	Percent heavier (+) or lighter (−) than initial weight [1]	Weight gain (+) or loss (−) [1]	Body weight gain and food intake vs vehicle [2]	Cumulative water intake ([3]; 1 mg/day ip, 7 days)	Cumulative food intake ([3]; 1 mg/day ip, 7 days)	Heavier (+) or lighter (−) than initial weight ([3]; 1 mg/day ip, 7 days)	Weight gain (+) or loss (−) ([3]; 1 mg/day ip, 7 days)	Food intake of D-analogs ([3]; 7 days)	Increase (+) or decrease (−) of cumulative water intake ([3]; vs vehicle)	Increase (+) or decrease (−) of cumulative food intake ([3]; vs vehicle)	Serum glucose level ([4]; Day 2)	Serum glucose level ([4]; Day 4)	Serum glucose level ([4]; Day 6)	Cumulative food intake g/mouse3 g/mouse3 ([3]; 1 mg/day ip, 7 days) [g/mouse]	Decrease(%) of cumulative food intake ([3]; 1 mg/day ip, 7 days, vs vehicle) [%]	Food intake less than vehicle-injected control mice ([3]; 7 days) [%]	Water consumption relative to OB3 ([3]; 7 days)
V S A K Q R V T G L D F I P G (VSAKQRVTGLDFIPG; not fully specified) [LEP(51–65)]	40.7 ± 0.6	+25.0%	+6.4 g	not significantly (i.e., P>0.05) different														
Ser-Cys-Ser-Leu-Pro-[D-Gln]-Thr (SCSLP[dQ]T) [[D-Gln-6]-OB3]					57.1 ± 1.0 ml/mouse	43.5 ± 0.9 g/mouse	+4.6%	+2.1 ± 0.14 g	reduced food intake when compared to vehicle-injected control mice, but not to the level seen in mice receiving OB3	−11.1%	−13.7%	394.0 ± 45.4 mg/dL	354.5 ± 17.3 mg/dL	358.0 ± 28.1 mg/dL				
D F I P G L H P I L S L S K M (DFIPGLHPILSLSKM) [LEP(61–75)]	44.6 ± 2.3	+24.0%	+5.9 g															
A V P I Q K V Q D D T K T L I (AVPIQKVQDDTKTLI) [LEP(21–35)]	39.1 ± 1.0	+24.0%	+6.2 g	not significantly (i.e., P>0.05) different														
Ser-Cys-[D-Ser]-Leu-Pro-Gln-Thr (SC[dS]LPQT) [[D-Ser-3]-OB3]					53.2 ± 1.1 ml/mouse	45.9 ± 0.6 g/mouse	+13.2%	+4.7 ± 0.67 g	reduced food intake when compared to vehicle-injected control mice, but not to the level seen in mice receiving OB3	−17.1%	−8.9%	385.0 ± 10.0 mg/dL	337.0 ± 43.6 mg/dL	348.2 ± 14.0 mg/dL				
Ser-Cys-Ser-Leu-Pro (SCSLP; printed: Ser-Cys-Ser-Leu-Pro) [LEP-(116–120)]				did not approximate the activity observed with LEP(116–130)											42.4 ± 1.2	6.2	6.2	
V Y Q Q V L T S L P S Q N V L (VYQQVLTSLPSQNVL) [LEP(81–95)]	39.5 ± 1.1	+26.0%	+6.2 g															
[D-Ser][D-Cys][D-Ser][D-Leu][D-Pro][D-Gln][D-Thr] [[D]-OB3]					67.5 ± 2.2 ml/mouse	52.7 ± 1.0 g/mouse	+10.0%	+4.0 ± 0.36 g	slight increase in food consumption	+5.1%	+4.6%	325.7 ± 31.5 mg/dL	405.5 ± 35.8 mg/dL	401.8 ± 25.0 mg/dL				
SCSL[dP]QT [[D-Pro-5]-OB3]					32.2 ± 0.8^b ml/mouse	36.0 ± 12^b g/mouse	+2.4%	+1.2 ± 0.13^b g	equivalent to that of mice receiving OB3	−49.8%	−28.6%	272.0 ± 22.2^b mg/dl	213.0 ± 28.4^a mg/dl	202.8 ± 31.4^a mg/dl				significantly less than that seen in mice receiving OB3
